Source: publication doi:10.1101/2024.07.07.602414v1 (bioRxiv, 2024)
Values belong to the substance of their own block, whether it stands above or below them.

What was measured:
Droplet microstructure = assay type: physicochemical; conditions: CLSM and fast FLIM with SBD dye, 448 nm excitation
[1] = Encapsulation efficiency of guest fluorophores by droplets; assay type: physicochemical
[2] = Redox controlled droplet formation through LLPS; assay type: physicochemical
[3] = assay type: physicochemical; conditions: 30 mg/mL, CLSM and fast FLIM

- droplet microstructure (core-shell or homogeneous) (Droplet microstructure): show similar results with the R group
Substance: YGYY

- behaviour of droplets when the fluorophores were added, pH 7.5 ([1]; pH 7.5, fluorophores added): tend to aggregates
- behaviour of droplets when the fluorophores were added, pH 9.0 ([1]; pH 9.0, fluorophores added): relatively stable
Substance: WYWW

- solubility in aqueous solution ([2]; aqueous solution, words only): very good solubility
- state of the droplet emulsion after adding DTT ([2]; oxidised peptide, then DTT, 5 mins at room temperature, CLSM / bright field): clear solution
- concentration at which the peptide still does not undergo LLPS ([2]; reduced (thiol) peptide, aqueous solution): 80000 µg/mL
Substance: YCGY

- droplet microstructure (core-shell or homogeneous) (Droplet microstructure): formed homogeneous droplets
Substance: YRYY

- droplet microstructure before oxidation ([3]; pH 7.5 (1 M NaOH), SBD dye): forms homogeneous droplets
- droplet microstructure after oxidation by H2O2 ([3]; pH 7.5, 1 μL H2O2 (1M), 5 mins at room temperature): transform into the multiphasic droplets
Substance: WCRY

- droplet microstructure (core-shell or homogeneous) (Droplet microstructure): show similar results with the R group
Substance: WGWW
